Values joined by “and” are separate entries in the source; they are usually repeats but may differ in a detail not shown here. Identical values can stand only once.
System: 324938-238-R-J1-PDC complex spheroid growth, % test/control
Test: Anticancer human tumor 324938-238-R-J1-PDC patient-derived bladder carcinoma cell line growth inhibition [AhR]
Conditions: for viability, T/C: stronger effect = lower value
Procedure, shortened: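 Spheroids combined tumor cells with HUVEC endothelial cells and human MSCs as stroma. AhR antagonists were paired with standard or investigational drugs, each dosed in half-log steps down from near clinical Cmax, or from 10 microM where Cmax was unknown.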

[1] = curve of first compound, second compound 0.1 µM
[2] = curve of first compound, second compound 0.316 µM
[3] = curve of first compound, second compound 1 µM
[4] = curve of first compound, second compound 3.16 µM
[5] = curve of first compound, second compound 10 µM
[6] = second compound 0.1 µM, first compound 0.0316 µM
[7] = second compound 0.1 µM, first compound 0.1 µM
[8] = second compound 0.316 µM, first compound 0.0316 µM
[9] = second compound 0.316 µM, first compound 0.1 µM
[10] = second compound 1 µM, first compound 0.0316 µM
[11] = second compound 1 µM, first compound 0.1 µM
[12] = second compound 3.16 µM, first compound 0.0316 µM
[13] = second compound 3.16 µM, first compound 0.1 µM
[14] = second compound 10 µM, first compound 0.0316 µM
[15] = second compound 10 µM, first compound 0.1 µM
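Also: spheroids exposed to agents for seven days before viability read.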

`Cn1ncnc1C1c2n[nH]c(=O)c3cc(F)cc(c23)NC1c1ccc(F)cc1` (configuration not stated) + Cc1cncc(-c2nc(NCCc3c[nH]c4ccccc34)c3ncn(C(C)C)c3n2)c1 gave an IC50 [1] of over 100 nM, an IC50 [2] of over 100 nM and an IC50 [3] of over 100 nM. It also gave an IC50 [4] of over 100 nM, an IC50 [5] of under 0.316 nM and a viability, T/C (second compound 0.1 µM, first compound 0.000316 µM) of 92.1%. It also gave a viability, T/C (second compound 0.1 µM, first compound 0.001 µM) of 110%, a viability, T/C (second compound 0.1 µM, first compound 0.00316 µM) of 105% and a viability, T/C (second compound 0.1 µM, first compound 0.01 µM) of 94.5%. It also gave a viability, T/C [6] of 120%, a viability, T/C [7] of 86.2% and a viability, T/C (second compound 0.316 µM, first compound 0.000316 µM) of 108%. The viability, T/C (second compound 0.316 µM, first compound 0.001 µM) was 113%, the viability, T/C (second compound 0.316 µM, first compound 0.00316 µM) was 138% and the viability, T/C (second compound 0.316 µM, first compound 0.01 µM) was 81.6%. The viability, T/C [8] was 112%, the viability, T/C [9] was 105% and the viability, T/C (second compound 1 µM, first compound 0.000316 µM) was 78.9%. It also gave a viability, T/C (second compound 1 µM, first compound 0.001 µM) of 142%, a viability, T/C (second compound 1 µM, first compound 0.00316 µM) of 116% and a viability, T/C (second compound 1 µM, first compound 0.01 µM) of 112%. The viability, T/C [10] was 106%, the viability, T/C [11] was 134% and the viability, T/C (second compound 3.16 µM, first compound 0.000316 µM) was 93.7%. For the same compound, the viability, T/C (second compound 3.16 µM, first compound 0.001 µM) was 112%, the viability, T/C (second compound 3.16 µM, first compound 0.00316 µM) was 92.6% and the viability, T/C (second compound 3.16 µM, first compound 0.01 µM) was 98.1%. The viability, T/C [12] was 94.2%, the viability, T/C [13] was 99.3% and the viability, T/C (second compound 10 µM, first compound 0.000316 µM) was 9.29%. For the same compound, the viability, T/C (second compound 10 µM, first compound 0.001 µM) was 12.6%, the viability, T/C (second compound 10 µM, first compound 0.00316 µM) was 9.9% and the viability, T/C (second compound 10 µM, first compound 0.01 µM) was 13%. For the same compound, the viability, T/C [14] was 9.12% and the viability, T/C [15] was 22.1%.

In the case of `NS(=O)(=O)OCC1CC(n2ccc3c(NC4CCc5ccccc54)ncnc32)CC1O` (configuration not stated), the viability, T/C (compound 0.0316 µM) is reported as 120% and 104% and 97.8%, the viability, T/C (compound 0.1 µM) is reported as 79.3% and 98% and 80.5% and the viability, T/C (compound 0.316 µM) is reported as 97.1% and 99.1% and 65.3%. For the same compound, the viability, T/C (compound 1 µM) was 64.7% and 67.5% and 40.5%, the viability, T/C (compound 3.16 µM) was 30.8% and 30.9% and 26.9% and the viability, T/C (compound 10 µM) was 25.3% and 31.1% and 29.9%. The IC50 (curve of compound) was 1860 nM and 1750 nM and 616 nM.

`NS(=O)(=O)OCC1CC(n2ccc3c(NC4CCc5ccccc54)ncnc32)CC1O` (configuration not stated) + Cc1cncc(-c2nc(NCCc3c[nH]c4ccccc34)c3ncn(C(C)C)c3n2)c1 showed an IC50 [1] of 2650 nM, an IC50 [2] of 2480 nM and an IC50 [3] of 2970 nM. For the same compound, the IC50 [4] was 8510 nM, the IC50 [5] was under 31.6 nM and the viability, T/C [6] was 122%. The viability, T/C [7] was 101%, the viability, T/C (second compound 0.1 µM, first compound 0.316 µM) was 93.4% and the viability, T/C (second compound 0.1 µM, first compound 1 µM) was 71.9%. The viability, T/C (second compound 0.1 µM, first compound 3.16 µM) was 42.9%, the viability, T/C (second compound 0.1 µM, first compound 10 µM) was 25.7% and the viability, T/C [8] was 99.7%. For the same compound, the viability, T/C [9] was 104%, the viability, T/C (second compound 0.316 µM, first compound 0.316 µM) was 99.9% and the viability, T/C (second compound 0.316 µM, first compound 1 µM) was 71%. The viability, T/C (second compound 0.316 µM, first compound 3.16 µM) was 46.4%, the viability, T/C (second compound 0.316 µM, first compound 10 µM) was 32.5% and the viability, T/C [10] was 82.3%. For the same compound, the viability, T/C [11] was 95.5%, the viability, T/C (second compound 1 µM, first compound 0.316 µM) was 95.3% and the viability, T/C (second compound 1 µM, first compound 1 µM) was 97.6%. The viability, T/C (second compound 1 µM, first compound 3.16 µM) was 47.5%, the viability, T/C (second compound 1 µM, first compound 10 µM) was 29.1% and the viability, T/C [12] was 80%. The viability, T/C [13] was 114%, the viability, T/C (second compound 3.16 µM, first compound 0.316 µM) was 140% and the viability, T/C (second compound 3.16 µM, first compound 1 µM) was 103%. It also gave a viability, T/C (second compound 3.16 µM, first compound 3.16 µM) of 64.2%, a viability, T/C (second compound 3.16 µM, first compound 10 µM) of 47.5% and a viability, T/C [14] of 7.19%. For the same compound, the viability, T/C [15] was 15.3%, the viability, T/C (second compound 10 µM, first compound 0.316 µM) was 19% and the viability, T/C (second compound 10 µM, first compound 1 µM) was 23%. It also gave a viability, T/C (second compound 10 µM, first compound 3.16 µM) of 14.3% and a viability, T/C (second compound 10 µM, first compound 10 µM) of 7.16%.

`O=C(C=Cn1cnc(-c2cc(C(F)(F)F)cc(C(F)(F)F)c2)n1)NNc1cnccn1` + Cc1ccccc1N=Nc1ccc(NC(=O)c2ccnn2C)c(C)c1 showed an IC50 [1] of 173 nM, an IC50 [2] of 171 nM and an IC50 [3] of 178 nM. For the same compound, the IC50 [4] was 144 nM, the IC50 [5] was 172 nM and the viability, T/C (second compound 0.1 µM, first compound 0.00949 µM) was 91.4%. For the same compound, the viability, T/C (second compound 0.1 µM, first compound 0.03 µM) was 95.5%, the viability, T/C (second compound 0.1 µM, first compound 0.0949 µM) was 62.7% and the viability, T/C (second compound 0.1 µM, first compound 0.3 µM) was 35.8%. For the same compound, the viability, T/C (second compound 0.1 µM, first compound 0.949 µM) was 19.1%, the viability, T/C (second compound 0.1 µM, first compound 3 µM) was 8.4% and the viability, T/C (second compound 0.316 µM, first compound 0.00949 µM) was 90.4%. It also gave a viability, T/C (second compound 0.316 µM, first compound 0.03 µM) of 90.6%, a viability, T/C (second compound 0.316 µM, first compound 0.0949 µM) of 67.8% and a viability, T/C (second compound 0.316 µM, first compound 0.3 µM) of 32.1%. The viability, T/C (second compound 0.316 µM, first compound 0.949 µM) was 19.9%, the viability, T/C (second compound 0.316 µM, first compound 3 µM) was 11.9% and the viability, T/C (second compound 1 µM, first compound 0.00949 µM) was 86.4%. The viability, T/C (second compound 1 µM, first compound 0.03 µM) was 79.8%, the viability, T/C (second compound 1 µM, first compound 0.0949 µM) was 65.6% and the viability, T/C (second compound 1 µM, first compound 0.3 µM) was 37.1%. The viability, T/C (second compound 1 µM, first compound 0.949 µM) was 18.6%, the viability, T/C (second compound 1 µM, first compound 3 µM) was 10.7% and the viability, T/C (second compound 3.16 µM, first compound 0.00949 µM) was 84.7%. For the same compound, the viability, T/C (second compound 3.16 µM, first compound 0.03 µM) was 72%, the viability, T/C (second compound 3.16 µM, first compound 0.0949 µM) was 58.2% and the viability, T/C (second compound 3.16 µM, first compound 0.3 µM) was 37.5%. The viability, T/C (second compound 3.16 µM, first compound 0.949 µM) was 23.4%, the viability, T/C (second compound 3.16 µM, first compound 3 µM) was 16.3% and the viability, T/C (second compound 10 µM, first compound 0.00949 µM) was 78.4%. The viability, T/C (second compound 10 µM, first compound 0.03 µM) was 78.7%, the viability, T/C (second compound 10 µM, first compound 0.0949 µM) was 62.5% and the viability, T/C (second compound 10 µM, first compound 0.3 µM) was 37.2%. For the same compound, the viability, T/C (second compound 10 µM, first compound 0.949 µM) was 26.7% and the viability, T/C (second compound 10 µM, first compound 3 µM) was 18.6%.

— PubChem BioAssay AID1918995 (Molecular Pharmacology Branch, DTP, NCI, 2023)
